From publication PMC7608815 (Science Advances, 2020)

Columns and labels:
SlMT3 = target: T1, SlMT3 (Solanum lycopersicum, UniProt D2Y3T9); experiment: yeast feeding assay, qToF-MS of methylation product; assay type: cell-based; details: 100 uM fed substrate plus endogenous yeast 3-HAA, 72 h, 30 C
T1 sequence (D2Y3T9 1-361): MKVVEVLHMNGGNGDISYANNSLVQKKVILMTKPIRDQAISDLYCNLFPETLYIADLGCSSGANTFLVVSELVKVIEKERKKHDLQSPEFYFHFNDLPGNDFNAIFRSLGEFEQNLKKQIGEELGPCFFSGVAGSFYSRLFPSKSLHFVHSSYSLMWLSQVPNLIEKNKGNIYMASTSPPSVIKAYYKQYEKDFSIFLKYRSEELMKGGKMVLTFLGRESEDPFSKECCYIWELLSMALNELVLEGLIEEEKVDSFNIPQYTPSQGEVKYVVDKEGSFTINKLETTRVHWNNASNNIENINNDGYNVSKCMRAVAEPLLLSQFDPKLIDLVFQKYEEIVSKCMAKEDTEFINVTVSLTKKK

AtCHS = target: T2, AtCHS (Arabidopsis thaliana, UniProt P13114); experiment: LC-MS/MS product detection, end point […] h; assay type: biochemical; details: 200 uM p-coumaroyl-CoA, 30 C
T2 sequence (P13114 2-395): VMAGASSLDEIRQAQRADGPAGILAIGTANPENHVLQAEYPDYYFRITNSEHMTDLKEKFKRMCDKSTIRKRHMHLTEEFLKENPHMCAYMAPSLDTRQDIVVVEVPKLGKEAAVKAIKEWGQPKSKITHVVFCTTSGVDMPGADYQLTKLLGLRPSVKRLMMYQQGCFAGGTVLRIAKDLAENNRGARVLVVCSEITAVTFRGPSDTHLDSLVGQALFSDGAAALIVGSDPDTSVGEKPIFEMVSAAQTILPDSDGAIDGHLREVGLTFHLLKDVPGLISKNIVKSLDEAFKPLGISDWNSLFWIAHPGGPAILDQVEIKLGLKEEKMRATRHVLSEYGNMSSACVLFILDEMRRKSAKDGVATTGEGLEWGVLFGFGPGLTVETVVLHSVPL

Nc1c(O)cccc1C(=O)O [3-HAA]
yeast feeding assay, qToF-MS of methylation product (SlMT3): SlMT3 exhibited detectable activity only toward 3-HAA

COC(=O)c1cccc(O)c1N [compound 1, Methyl 2-amino-3-hydroxybenzoate]
LC-MS/MS product detection, end point 4 h (AtCHS; 200 uM 3-HAA methyl ester, amide synthesis): highest production of amide with 3-HAA methyl ester

CC(C)(COP(=O)(O)OP(=O)(O)OC[C@H]1O[C@@H](n2cnc3c(N)ncnc32)[C@H](O)[C@@H]1OP(=O)(O)O)[C@@H](O)C(=O)NCCC(=O)NCCSC(=O)CC(=O)O [malonyl-CoA]
LC-MS/MS product detection, end point 4 h (AtCHS; 200 uM malonyl-CoA, naringenin chalcone synthesis): its activities on malonyl-CoA and 3-HAA methyl ester were analyzed under the same assay conditions
